Test results reported in ChEMBL document CHEMBL1201862, “PubChem BioAssay data set” (2004).
Blank lines part the entries; values can stand above or below the molecule they belong to. The source made the active and inactive calls.

Key:
[1] = target: T1, Runt-related transcription factor 1/Core-binding factor subunit beta (Homo sapiens, UniProt Q01196+Q13951); test: inhibitors of RUNX1 Runt–CBFb-SMMHC binding, primary screen, biochemical, FRET, Cerulean-Runt, Venus-CBFb-SMMHC, uHTS (AID 1434); format: protein assay;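 note: partner is the CBFb-SMMHC leukemia fusion protein rather than wild-type CBFb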
[2] = target: T1, Runt-related transcription factor 1/Core-binding factor subunit beta; test: inhibitors of RUNX1 Runt–CBFb-SMMHC binding, biochemical, TR-FRET (AID 1438); format: protein assay
[3] = target: Eukaryotic translation initiation factor 4H (Homo sapiens, UniProt Q15056); test: eIF4H inhibition in translation initiation, SAR follow-up (AID 435011); format: functional
[4] = target: Polyadenylate-binding protein 1 (Homo sapiens, UniProt P11940); test: PABP inhibition in translation initiation, SAR follow-up (AID 435018); format: functional
Hexokinase = Hexokinase (Trypanosoma brucei, UniProt Q38C41); test: Confirmation assay for inhibitors of Trypanosoma brucei hexokinase 1-Analogue-first series. [Related pubchem assays (depositor defined):AID1430, AID1632, AID2516, AID2560, AID2579, AID2600, AID449725, AID492951]; format: functional
[5] = target: Voltage-dependent T-type calcium channel subunit alpha-1H (Homo sapiens, UniProt O95180); test: Cav3.2 T-type channel inhibitors, cell-based, synthetic library set 1, calcium flux (AID 493022); format: functional
Voltage-dependent T-type calcium channel subunit alpha-1H, sequence (O95180 whole entry): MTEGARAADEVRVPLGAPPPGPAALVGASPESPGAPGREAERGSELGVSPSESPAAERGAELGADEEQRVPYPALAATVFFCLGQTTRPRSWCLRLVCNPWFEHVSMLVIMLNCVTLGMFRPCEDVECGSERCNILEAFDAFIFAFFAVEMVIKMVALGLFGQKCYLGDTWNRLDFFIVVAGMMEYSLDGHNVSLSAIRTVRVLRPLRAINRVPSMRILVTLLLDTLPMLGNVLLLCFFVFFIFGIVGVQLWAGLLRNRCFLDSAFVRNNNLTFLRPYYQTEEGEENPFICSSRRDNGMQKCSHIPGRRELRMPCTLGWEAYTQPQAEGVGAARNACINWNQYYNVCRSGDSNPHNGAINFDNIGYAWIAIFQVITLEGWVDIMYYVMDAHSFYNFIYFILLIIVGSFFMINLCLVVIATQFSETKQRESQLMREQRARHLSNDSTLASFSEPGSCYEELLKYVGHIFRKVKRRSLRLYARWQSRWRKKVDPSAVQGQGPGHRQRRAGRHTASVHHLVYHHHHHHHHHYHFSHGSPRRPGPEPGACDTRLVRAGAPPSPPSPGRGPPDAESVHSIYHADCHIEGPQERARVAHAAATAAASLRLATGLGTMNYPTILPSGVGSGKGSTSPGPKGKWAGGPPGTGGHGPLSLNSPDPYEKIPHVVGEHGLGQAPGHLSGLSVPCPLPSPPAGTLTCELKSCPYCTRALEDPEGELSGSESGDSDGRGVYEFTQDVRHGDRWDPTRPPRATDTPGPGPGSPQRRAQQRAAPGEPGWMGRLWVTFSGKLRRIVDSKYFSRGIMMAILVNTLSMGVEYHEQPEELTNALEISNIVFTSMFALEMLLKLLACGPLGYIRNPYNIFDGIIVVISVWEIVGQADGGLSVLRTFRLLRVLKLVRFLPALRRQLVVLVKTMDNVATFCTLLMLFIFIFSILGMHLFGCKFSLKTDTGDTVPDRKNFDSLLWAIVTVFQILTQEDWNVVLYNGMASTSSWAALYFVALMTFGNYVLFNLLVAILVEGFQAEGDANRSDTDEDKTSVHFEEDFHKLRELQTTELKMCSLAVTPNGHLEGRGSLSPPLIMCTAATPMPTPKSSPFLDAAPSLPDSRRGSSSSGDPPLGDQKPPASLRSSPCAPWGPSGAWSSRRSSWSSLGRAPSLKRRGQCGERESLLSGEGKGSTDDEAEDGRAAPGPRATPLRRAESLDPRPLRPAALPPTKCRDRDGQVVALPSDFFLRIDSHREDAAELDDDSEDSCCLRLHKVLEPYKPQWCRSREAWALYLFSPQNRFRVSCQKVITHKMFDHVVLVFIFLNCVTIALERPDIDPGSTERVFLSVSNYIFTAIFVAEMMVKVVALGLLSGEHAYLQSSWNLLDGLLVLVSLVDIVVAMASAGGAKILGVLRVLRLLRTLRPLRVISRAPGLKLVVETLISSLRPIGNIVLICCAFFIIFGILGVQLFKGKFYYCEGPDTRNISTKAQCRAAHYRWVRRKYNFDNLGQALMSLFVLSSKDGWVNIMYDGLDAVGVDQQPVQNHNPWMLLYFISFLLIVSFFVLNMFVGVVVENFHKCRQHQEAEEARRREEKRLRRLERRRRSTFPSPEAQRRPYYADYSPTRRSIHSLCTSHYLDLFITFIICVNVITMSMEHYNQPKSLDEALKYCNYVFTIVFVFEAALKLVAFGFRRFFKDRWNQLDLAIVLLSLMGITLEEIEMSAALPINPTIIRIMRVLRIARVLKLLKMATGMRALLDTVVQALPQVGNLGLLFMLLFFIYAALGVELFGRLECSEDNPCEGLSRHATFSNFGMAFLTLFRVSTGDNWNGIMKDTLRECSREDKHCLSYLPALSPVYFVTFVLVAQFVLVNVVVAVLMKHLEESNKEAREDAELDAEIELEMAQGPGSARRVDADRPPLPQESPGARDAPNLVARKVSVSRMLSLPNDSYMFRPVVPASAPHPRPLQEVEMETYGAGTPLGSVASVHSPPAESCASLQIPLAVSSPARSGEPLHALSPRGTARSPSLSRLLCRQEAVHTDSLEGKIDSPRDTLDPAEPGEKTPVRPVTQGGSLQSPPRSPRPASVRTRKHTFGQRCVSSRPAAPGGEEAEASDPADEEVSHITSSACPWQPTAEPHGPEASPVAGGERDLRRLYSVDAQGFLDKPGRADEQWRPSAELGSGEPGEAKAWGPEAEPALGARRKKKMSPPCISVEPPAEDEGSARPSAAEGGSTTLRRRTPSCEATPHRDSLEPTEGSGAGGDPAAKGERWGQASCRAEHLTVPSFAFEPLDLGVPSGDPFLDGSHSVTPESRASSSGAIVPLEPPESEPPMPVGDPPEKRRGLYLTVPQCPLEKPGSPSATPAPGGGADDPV

T1 sequence (Q01196 whole entry, the tested form may be a part): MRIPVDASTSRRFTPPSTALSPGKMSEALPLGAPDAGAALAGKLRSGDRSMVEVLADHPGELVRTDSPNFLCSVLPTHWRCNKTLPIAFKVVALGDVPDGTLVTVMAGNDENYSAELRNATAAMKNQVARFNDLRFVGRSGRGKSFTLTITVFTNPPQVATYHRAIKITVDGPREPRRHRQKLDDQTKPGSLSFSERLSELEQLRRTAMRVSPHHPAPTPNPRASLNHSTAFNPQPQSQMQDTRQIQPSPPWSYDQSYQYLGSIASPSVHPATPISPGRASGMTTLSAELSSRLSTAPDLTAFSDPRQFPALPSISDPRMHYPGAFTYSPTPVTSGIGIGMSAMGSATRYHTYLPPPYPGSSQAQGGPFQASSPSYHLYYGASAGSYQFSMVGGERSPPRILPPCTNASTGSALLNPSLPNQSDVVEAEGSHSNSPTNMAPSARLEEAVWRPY
T1 sequence (Q13951 whole entry, the tested form may be a part): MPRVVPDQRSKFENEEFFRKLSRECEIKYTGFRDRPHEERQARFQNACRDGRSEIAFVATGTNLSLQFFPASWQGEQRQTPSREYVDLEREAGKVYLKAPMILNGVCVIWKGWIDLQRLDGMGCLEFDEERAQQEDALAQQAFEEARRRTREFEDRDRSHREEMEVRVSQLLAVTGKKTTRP
Hexokinase, sequence (Q38C41 whole entry): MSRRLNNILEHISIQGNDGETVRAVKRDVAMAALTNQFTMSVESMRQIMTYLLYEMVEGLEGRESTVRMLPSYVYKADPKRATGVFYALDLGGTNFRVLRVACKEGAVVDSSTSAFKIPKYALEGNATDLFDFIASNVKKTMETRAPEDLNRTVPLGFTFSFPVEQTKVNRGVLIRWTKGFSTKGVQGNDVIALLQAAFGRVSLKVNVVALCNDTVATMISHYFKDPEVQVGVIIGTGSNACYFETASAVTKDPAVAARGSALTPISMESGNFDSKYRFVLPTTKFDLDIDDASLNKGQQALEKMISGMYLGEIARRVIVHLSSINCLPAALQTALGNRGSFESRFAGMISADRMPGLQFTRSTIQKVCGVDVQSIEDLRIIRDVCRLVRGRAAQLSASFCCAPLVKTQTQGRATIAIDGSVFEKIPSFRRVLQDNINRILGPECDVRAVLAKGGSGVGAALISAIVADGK
Polyadenylate-binding protein 1, sequence (P11940 whole entry): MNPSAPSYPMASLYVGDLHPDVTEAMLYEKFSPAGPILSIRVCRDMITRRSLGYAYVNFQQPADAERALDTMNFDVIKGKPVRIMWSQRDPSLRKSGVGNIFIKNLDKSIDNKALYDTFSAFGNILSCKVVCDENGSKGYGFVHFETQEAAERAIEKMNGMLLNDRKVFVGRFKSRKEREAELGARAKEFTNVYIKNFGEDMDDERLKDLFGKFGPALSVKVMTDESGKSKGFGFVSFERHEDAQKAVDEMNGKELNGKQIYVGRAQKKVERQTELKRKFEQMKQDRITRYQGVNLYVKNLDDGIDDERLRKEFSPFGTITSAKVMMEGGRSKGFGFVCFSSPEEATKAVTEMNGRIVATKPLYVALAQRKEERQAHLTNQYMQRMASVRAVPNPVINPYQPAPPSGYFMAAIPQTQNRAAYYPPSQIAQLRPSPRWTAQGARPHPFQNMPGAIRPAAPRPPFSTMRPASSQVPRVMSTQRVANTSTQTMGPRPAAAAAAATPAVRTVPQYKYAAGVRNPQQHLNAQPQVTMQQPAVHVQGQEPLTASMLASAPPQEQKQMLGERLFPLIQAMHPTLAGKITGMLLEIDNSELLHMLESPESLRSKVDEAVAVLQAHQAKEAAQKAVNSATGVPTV

- IC50 [1]: > 100 µM (inactive)
- IC50 [2]: > 100 µM (inactive)
Structure (SMILES): N#Cc1c2c(c(NCc3ccco3)n3c1nc1ccccc13)CCC2

Structure (SMILES): COc1ccc(NC(=O)C2CC(=O)N(C)/C(=N\c3ccccc3OC)S2)cc1 (stereo unspecified)
- IC50 [3]: > 100 µM (inactive)
- IC50 [4]: > 100 µM (inactive)

Structure (SMILES): O=C(Cn1sc2ccccc2c1=O)Nc1cccc(C(F)(F)F)c1
- IC50 (Hexokinase): > 25 µM (inactive)

- EC50 [5]: 2.1 µM (active)
Structure (SMILES): O=C(COc1ccc(F)cc1Cl)Nc1nnc(-c2ccc3c(c2)OCO3)o1
